This is an account of results in patent US3953442A (priority 1972, dated 1976).

The test system of one series is visceral pain. In words: Analgesic effect, acetic acid induced visceral pain in the mouse (Koster and Anderson test). The class given is in vivo. Particulars: oral, 30 min before acetic acid injection, 50% effective dose. The procedure: The compounds (I) are analgesic agents.
A visceral pain is induced in the mouse by intraperitonal injection of a dilute solution of acetic acid (Koster and Anderson test).
The animals, which are starved on the day before the experiment and separated into random batches of 5, are treated with the products under test thirty minutes before injection of the irritant. Treatment was always performed orally.
After the acetic acid solution is injected the animals show symptoms of pain (stretching of the abdomen with extension of the back feet) which are counted during two spells of 5 minutes for each lot: from the fifth to the tenth minute and from the fifteenth to the twentieth minute respectively after the acid is injected
The ED50 value is expressed in mg kg bodyweight

The next series relates to central nervous system. In words: animal or person. The class given is in vivo. Particulars: Mus musculus, read-out: Spontaneous pattern of activity (table head: LD50 in mg/kg).
Series [1] is described as follows: Acute toxicity (LD50) in the mouse. Particulars: in vivo. As for the experimental part: The compounds of the present invention are not very toxic. By way of example, with the mouse, the dose which causes the death of 50 % of the animals or (LD50) is about 400 mg/kg bodyweight by oral and sub-cutaneous administration in the case of 5862.

Read-outs that look alike come from different tables or passages of the source.

In the case of `CC(Cc1cn(-c2ccccc2)c2ccccc12)N1CCCCC1` (centres unmarked) [compound 5478], the ED50 in the series with visceral pain and with central nervous system (ip) was 12.5 mg/kg throughout.

For `CNC(C)Cc1cn(-c2ccccc2)c2ccccc12` (centres unmarked) [compound 5479], the values for the ED50 in the series on central nervous system (ip) and in the series on central nervous system (po) were 2.5 mg/kg and 25 mg/kg, respectively.

Regarding `CC(Cc1cn(-c2ccccc2)c2ccccc12)N1CCCC1` (centres unmarked) [compound 5480], the ED50 in the series with central nervous system (ip) is 2.5 mg/kg; in the series on central nervous system (po), 12.5 mg/kg.

As to `CC(Cc1cn(-c2ccccc2)c2ccccc12)N1CCOCC1` (centres unmarked) [compound 5481], the ED50 was 12.5 mg/kg in the series on visceral pain and 2.5 mg/kg in the series with central nervous system (ip).

For `CC(Cc1cn(-c2ccccc2)c2ccccc12)N(C)C` (centres unmarked) [compound 5483], the ED50 is 12.5 mg/kg in the series with visceral pain, 5 mg/kg with central nervous system (ip) and 25 mg/kg in the series with central nervous system (po).

Turning to `CNC(C)Cc1cn(-c2ccc(OC)cc2)c2ccccc12` (centres unmarked) [compound 5772], in the series on central nervous system (ip), the ED50 was found to be 25 mg/kg.

For `COc1ccc(-n2cc(CC(C)N(C)C)c3ccccc32)cc1` (centres unmarked) [compound 5773], the ED50 in the series with visceral pain came out at 12.5 mg/kg; in the series on central nervous system (ip) it was 1.25 mg/kg; in the series with central nervous system (po), 40 mg/kg.

Turning to `COc1ccc(-n2cc(CC(C)NC(C)C)c3ccccc32)cc1` (centres unmarked) [compound 5774, 1-(4-methoxyphenyl)-3-(2-isopropylaminopropyl)indole], the ED50 with central nervous system (ip) was determined as 12.5 mg/kg.

As for `COc1ccc(-n2cc(CC(C)N3CCCC3)c3ccccc32)cc1` (centres unmarked) [compound 5775], the ED50 with visceral pain amounted to 25 mg/kg; with central nervous system (ip) it was 1 mg/kg.

Turning to `COc1ccc(-n2cc(CC(C)N3CCCCC3)c3ccccc32)cc1` (centres unmarked) [compound 5776], the ED50 was 5 mg/kg with central nervous system (ip) and 35 mg/kg in the series on central nervous system (po).

For the compound `COc1ccc(-n2cc(CC(C)N3CCOCC3)c3ccccc32)cc1` (centres unmarked) [compound 5777], the ED50 in the series with central nervous system (ip) amounted to 25 mg/kg.

In the case of `CNC(C)Cc1cn(-c2ccc(Cl)cc2)c2ccccc12` (centres unmarked) [compound 5859], the ED50 with central nervous system (ip) turned out to be 5 mg/kg.

With `CC(Cc1cn(-c2ccc(Cl)cc2)c2ccccc12)N(C)C` (centres unmarked) [compound 5860], the ED50 with visceral pain worked out at 25 mg/kg; in the series with central nervous system (ip), 5 mg/kg.

With `CC(Cc1cn(-c2ccc(Cl)cc2)c2ccccc12)N1CCCC1` (centres unmarked) [compound 5861], the ED50 with visceral pain turned out to be 25 mg/kg.

Take `CC(Cc1cn(-c2ccc(F)cc2)c2ccccc12)N1CCCC1.Cl` (centres unmarked) [compound 5862, 3-(2-pyrrolidinopropyl)-1-(4-fluorophenyl)indole hydrochloride]: the ED50 turned out to be 3.12 mg/kg with visceral pain and 0.4 mg/kg in the series on central nervous system (ip). Moreover, the median lethal dose (LD50) in series [1] (oral) is ~400 mg/kg; in series [1] (sc, sub-cutaneous), ~400 mg/kg.

In the case of `CNC(C)Cc1cn(-c2ccc(F)cc2)c2ccccc12` (centres unmarked) [compound 5863], the figures for the ED50 with visceral pain and with central nervous system (ip) were 6.25 mg/kg and 2 mg/kg, respectively.

With `CC(Cc1cn(-c2ccc(F)cc2)c2ccccc12)N(C)C` (centres unmarked) [compound 5864], the ED50 amounted to 3.12 mg/kg with visceral pain and 2 mg/kg with central nervous system (ip).

Turning to `CNC(C)Cc1cn(-c2ccc(N)cc2)c2ccccc12` (centres unmarked) [compound 5935], the ED50 in the series with central nervous system (ip) is 2.5 mg/kg.

Take `CC(Cc1cn(-c2ccccc2Cl)c2ccccc12)N1CCCC1` (centres unmarked) [compound 5984]: the ED50 in the series with central nervous system (ip) is 0.25 mg/kg; in the series with central nervous system (po) it was 10 mg/kg.

For the compound `CC(Cc1cn(-c2ccccc2Cl)c2ccccc12)N(C)C` (centres unmarked) [compound 5987], the ED50 with visceral pain was found to be 12.5 mg/kg; in the series on central nervous system (ip) it was 6 mg/kg; in the series with central nervous system (po), 6.25 mg/kg.

As to `CC(Cc1cn(-c2ccccc2F)c2ccccc12)N1CCCC1` (centres unmarked) [compound 5988], the results for the ED50 in the series on visceral pain and in the series on central nervous system (ip) were 12.5 mg/kg and 5 mg/kg, respectively.

Take `CNC(C)Cc1cn(-c2ccccc2F)c2ccccc12` (centres unmarked) [compound 6050]: the ED50 in the series on central nervous system (ip) was found to be 12.5 mg/kg.

Regarding `CNC(C)Cc1cn(-c2ccccc2Cl)c2ccccc12` (centres unmarked) [compound 6051], the ED50 with visceral pain is 50 mg/kg; in the series on central nervous system (ip) it was 5 mg/kg.

On to `COc1ccc2c(c1)c(CC(C)N1CCCC1)cn2-c1ccccc1` (centres unmarked) [compound 6066], for which, in the series on central nervous system (ip), the ED50 was 10 mg/kg.

Turning to `CC(Cc1cn(-c2cccnc2)c2ccccc12)N(C)C` (centres unmarked) [compound 6097], the ED50 with central nervous system (ip) came to 10 mg/kg.

As for `CC(Cc1cn(-c2ccccn2)c2ccccc12)N(C)C` (centres unmarked) [compound 6099], the ED50 in the series on central nervous system (ip) worked out at 50 mg/kg.

In the case of `CC(Cc1cn(-c2ccccn2)c2ccccc12)N1CCCC1` (centres unmarked) [compound 6102], in the series with central nervous system (ip), the ED50 amounted to 12.5 mg/kg.

On to `CNC(C)Cc1cn(-c2ccccn2)c2ccccc12` (centres unmarked) [compound 6104], for which the ED50 in the series with central nervous system (ip) worked out at 25 mg/kg.

As for `CC(Cc1cn(-c2ccc(F)cc2)c2ccc(Cl)cc12)N1CCCC1` (centres unmarked) [compound 6112, 5-chloro-1-(4-fluorophenyl)-3-(2-pyrrolidinopropyl)indole], the ED50 with visceral pain stood at 0.75 mg/kg; in the series on central nervous system (ip) it was 0.4 mg/kg. Further, the median lethal dose (LD50) in series [1] (oral) was > 800 mg/kg; in series [1] (sc, sub-cutaneous), 400 to 800 mg/kg.

As for `CC(Cc1cn(-c2ccccc2)c2ccc(F)cc12)N1CCCC1` (centres unmarked) [compound 6116], in the series on central nervous system (ip), the ED50 turned out to be 0.25 mg/kg. Besides, the LD50 in series [1] (sc, sub-cutaneous) was > 1000 mg/kg.

`CC(Cc1cn(-c2ccc(F)cc2)c2ccc(F)cc12)N1CCCC1` (centres unmarked) [compound 6250]: the results for the ED50 with central nervous system (ip) and with central nervous system (po) were 0.8 mg/kg and 3.12 mg/kg, respectively.

Consider `CC(Cc1cn(-c2ccc(Cl)cc2)c2ccc(F)cc12)N1CCCC1` (centres unmarked) [compound 6251], for which the ED50 in the series on visceral pain was determined as 12.5 mg/kg; with central nervous system (ip), 9 mg/kg; in the series on central nervous system (po) it was 25 mg/kg.

As for `CC(N)Cc1cn(-c2ccc(F)cc2)c2ccccc12` (centres unmarked) [compound 6254], the ED50 in the series with central nervous system (ip) came to 80 mg/kg.

As to `CC(Cc1cn(-c2ccc(Cl)cc2)c2ccc(F)cc12)N(C)C` (centres unmarked) [compound 6264], the ED50 in the series with central nervous system (ip) stood at 20 mg/kg.

For the compound `CC(Cc1cn(-c2ccccc2)c2ccc(F)cc12)N(C)C` (centres unmarked) [compound 6265], the ED50 with central nervous system (ip) worked out at 20 mg/kg.

Regarding `CC(Cc1cn(-c2ccc(F)cc2)c2ccc(Cl)cc12)N(C)C` (centres unmarked) [compound 6268], the ED50 in the series on central nervous system (ip) was found to be 6.25 mg/kg.

As to `CC(Cc1cn(-c2ccc(F)cc2)c2ccc(F)cc12)N(C)C` (centres unmarked) [compound 6269], the ED50 in the series with visceral pain and in the series on central nervous system (ip) was 6.25 mg/kg throughout.

For `COc1ccc2c(c1)c(CC(C)N1CCCC1)cn2-c1ccc(F)cc1` (centres unmarked) [compound 6270], the ED50 in the series with central nervous system (ip) stood at 3.12 mg/kg.

With `COc1ccc2c(c1)c(CC(C)N(C)C)cn2-c1ccccc1` (centres unmarked) [compound 6271], in the series with central nervous system (ip), the ED50 was determined as 12.5 mg/kg.

One may read the LD50 as the dose at which mortality reaches 50%.
